Measurements published in ChEMBL document CHEMBL1201862, “PubChem BioAssay data set” (2004).
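48-hour exposure; five concentrations; linearly interpolated endpoints. The concentration for 50% growth inhibition is given as GI50.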 Activity calls are given as the source filed them. Rule as the data show it: active = GI50 up to about 1.1 µM and inactive = higher.

Experiments:
Assay in all cases: growth of human tumour cells (NCI), 48 h
786-0 = tested on: 786-0
A498 = tested on: A498
A549 = tested on: A549
ACHN = tested on: ACHN
BT-549 = tested on: BT-549
CAKI-1 = tested on: CAKI-1
CCRF-CEM = tested on: CCRF-CEM
COLO 205 = tested on: COLO 205
DU-145 = tested on: DU-145
EKVX = tested on: EKVX
HCC 2998 = tested on: HCC 2998
HCT-116 = tested on: HCT-116
HCT-15 = tested on: HCT-15
HL-60 = tested on: HL-60
HOP-62 = tested on: HOP-62
HOP-92 = tested on: HOP-92
HT-29 = tested on: HT-29
Hs-578T = tested on: Hs-578T
IGROV-1 = tested on: IGROV-1
K562 = tested on: K562
KM12 = tested on: KM12
LOX IMVI = tested on: LOX IMVI
M14 = tested on: M14
MCF7 = tested on: MCF7
MDA-MB-231 = tested on: MDA-MB-231
MDA-MB-435 = tested on: MDA-MB-435
MDA-N = tested on: MDA-N
MOLT-4 = tested on: MOLT-4
Malme-3M = tested on: Malme-3M
NCI-H226 = tested on: NCI-H226
NCI-H23 = tested on: NCI-H23
NCI-H522 = tested on: NCI-H522
NCI/ADR-RES = tested on: NCI/ADR-RES
OVCAR-3 = tested on: OVCAR-3
OVCAR-4 = tested on: OVCAR-4
OVCAR-5 = tested on: OVCAR-5
OVCAR-8 = tested on: OVCAR-8
RPMI-8226 = tested on: RPMI-8226
RXF 393 = tested on: RXF 393
SF-268 = tested on: SF-268
SF-295 = tested on: SF-295
SF-539 = tested on: SF-539
SK-MEL-2 = tested on: SK-MEL-2
SK-MEL-5 = tested on: SK-MEL-5
SK-OV-3 = tested on: SK-OV-3
SN12C = tested on: SN12C
SNB-19 = tested on: SNB-19
SNB-75 = tested on: SNB-75
SR = tested on: SR
SW-620 = tested on: SW-620
T47D = tested on: T47D
TK-10 = tested on: TK-10
UACC-257 = tested on: UACC-257
UACC-62 = tested on: UACC-62
UO-31 = tested on: UO-31
NCI-H460 = tested on: NCI-H460
PC-3 = tested on: PC-3
SK-MEL-28 = tested on: SK-MEL-28
U-251 = tested on: U-251

**Q.** With CC1OC(n2cnc3c(N)nc(Cl)nc32)C(C)(O)C1O (configuration not stated) as the compound, how does the GI50 (786-0) read?
**A.** > 25 µM (inactive)

**Q.** And the GI50 (A498)?
**A.** > 25 µM (inactive)

**Q.** What about the GI50 (A549) of the same compound?
**A.** > 25 µM (inactive)

**Q.** What about the GI50 (ACHN) of the same compound?
**A.** > 25 µM (inactive)

**Q.** What about the GI50 (BT-549) of the same compound?
**A.** > 25 µM (inactive)

**Q.** What about the GI50 (CAKI-1) of the same compound?
**A.** > 25 µM (inactive)

**Q.** And the GI50 (CCRF-CEM)?
**A.** > 25 µM (inactive)

**Q.** And the GI50 (COLO 205)?
**A.** > 25 µM (inactive)

**Q.** What about the GI50 (DU-145) of the same compound?
**A.** > 25 µM (inactive)

**Q.** And the GI50 (EKVX)?
**A.** > 25 µM (inactive)

**Q.** What about the GI50 (HCC 2998) of the same compound?
**A.** > 25 µM (inactive)

**Q.** And the GI50 (HCT-116)?
**A.** > 25 µM (inactive)

**Q.** What about the GI50 (HCT-15) of the same compound?
**A.** > 25 µM

**Q.** And the GI50 (HL-60)?
**A.** > 25 µM (inactive)

**Q.** And the GI50 (HOP-62)?
**A.** > 25 µM (inactive)

**Q.** And the GI50 (HOP-92)?
**A.** > 25 µM (inactive)

**Q.** And the GI50 (HT-29)?
**A.** > 25 µM (inactive)

**Q.** What about the GI50 (Hs-578T) of the same compound?
**A.** > 25 µM (inactive)

**Q.** What about the GI50 (IGROV-1) of the same compound?
**A.** > 25 µM (inactive)

**Q.** And the GI50 (K562)?
**A.** > 25 µM (inactive)

**Q.** And the GI50 (KM12)?
**A.** > 25 µM (inactive)

**Q.** What about the GI50 (LOX IMVI) of the same compound?
**A.** > 25 µM (inactive)

**Q.** And the GI50 (M14)?
**A.** > 25 µM (inactive)

**Q.** What about the GI50 (MCF7) of the same compound?
**A.** > 25 µM (inactive)

**Q.** What about the GI50 (MDA-MB-231) of the same compound?
**A.** > 25 µM (inactive)

**Q.** And the GI50 (MDA-MB-435)?
**A.** > 25 µM (inactive)

**Q.** What about the GI50 (MDA-N) of the same compound?
**A.** > 25 µM (inactive)

**Q.** And the GI50 (MOLT-4)?
**A.** > 25 µM (inactive)

**Q.** And the GI50 (Malme-3M)?
**A.** > 25 µM (inactive)

**Q.** What about the GI50 (NCI-H226) of the same compound?
**A.** > 25 µM (inactive)

**Q.** What about the GI50 (NCI-H23) of the same compound?
**A.** > 25 µM (inactive)

**Q.** What about the GI50 (NCI-H522) of the same compound?
**A.** > 25 µM (inactive)

**Q.** And the GI50 (NCI/ADR-RES)?
**A.** > 25 µM (inactive)

**Q.** And the GI50 (OVCAR-3)?
**A.** > 25 µM (inactive)

**Q.** And the GI50 (OVCAR-4)?
**A.** > 25 µM (inactive)

**Q.** What about the GI50 (OVCAR-5) of the same compound?
**A.** > 25 µM (inactive)

**Q.** And the GI50 (OVCAR-8)?
**A.** 19.8 µM (inactive)

**Q.** What about the GI50 (RPMI-8226) of the same compound?
**A.** > 25 µM (inactive)

**Q.** And the GI50 (RXF 393)?
**A.** > 25 µM (inactive)

**Q.** And the GI50 (SF-268)?
**A.** > 25 µM (inactive)

**Q.** What about the GI50 (SF-295) of the same compound?
**A.** > 25 µM (inactive)

**Q.** What about the GI50 (SF-539) of the same compound?
**A.** > 25 µM (inactive)

**Q.** And the GI50 (SK-MEL-2)?
**A.** > 25 µM (inactive)

**Q.** And the GI50 (SK-MEL-5)?
**A.** > 25 µM (inactive)

**Q.** What about the GI50 (SK-OV-3) of the same compound?
**A.** > 25 µM (inactive)

**Q.** And the GI50 (SN12C)?
**A.** > 25 µM (inactive)

**Q.** What about the GI50 (SNB-19) of the same compound?
**A.** > 25 µM (inactive)

**Q.** And the GI50 (SNB-75)?
**A.** 1.41 µM (inactive)

**Q.** And the GI50 (SR)?
**A.** > 25 µM (inactive)

**Q.** And the GI50 (SW-620)?
**A.** > 25 µM (inactive)

**Q.** What about the GI50 (T47D) of the same compound?
**A.** > 25 µM (inactive)

**Q.** What about the GI50 (TK-10) of the same compound?
**A.** > 25 µM (inactive)

**Q.** What about the GI50 (UACC-257) of the same compound?
**A.** > 25 µM (inactive)

**Q.** What about the GI50 (UACC-62) of the same compound?
**A.** > 25 µM (inactive)

**Q.** And the GI50 (UO-31)?
**A.** 16.7 µM (inactive)

**Q.** What does the source list for COC(=O)[C@@]12CSC[C@]1(C(=O)OC)N[C@@H](c1ccccc1O)C2?
**A.** GI50 (786-0): > 100 µM (inactive); GI50 (A498): > 100 µM (inactive); GI50 (A549): > 100 µM (inactive); GI50 (ACHN): > 100 µM (inactive); GI50 (BT-549): > 100 µM (inactive); GI50 (CAKI-1): > 100 µM (inactive); GI50 (CCRF-CEM): > 100 µM (inactive); GI50 (COLO 205): > 100 µM (inactive); GI50 (DU-145): > 100 µM (inactive); GI50 (EKVX): > 100 µM (inactive); GI50 (HCC 2998): > 100 µM (inactive); GI50 (HCT-116): > 100 µM (inactive); GI50 (HCT-15): > 100 µM; GI50 (HL-60): > 100 µM (inactive); GI50 (HOP-62): > 100 µM (inactive); GI50 (HOP-92): > 100 µM (inactive); GI50 (HT-29): > 100 µM (inactive); GI50 (Hs-578T): > 100 µM (inactive); GI50 (IGROV-1): > 100 µM (inactive); GI50 (K562): > 100 µM (inactive); GI50 (KM12): > 100 µM (inactive); GI50 (M14): > 100 µM (inactive); GI50 (MCF7): > 100 µM (inactive); GI50 (MDA-MB-435): > 100 µM (inactive); GI50 (MDA-N): > 100 µM (inactive); GI50 (MOLT-4): > 100 µM (inactive); GI50 (Malme-3M): > 100 µM (inactive); GI50 (NCI-H226): > 100 µM (inactive); GI50 (NCI-H23): > 100 µM (inactive); GI50 (NCI-H460): > 100 µM (inactive); GI50 (NCI-H522): > 100 µM (inactive); GI50 (NCI/ADR-RES): > 100 µM (inactive); GI50 (OVCAR-3): > 100 µM (inactive); GI50 (OVCAR-4): > 100 µM (inactive); GI50 (OVCAR-5): > 100 µM (inactive); GI50 (OVCAR-8): > 100 µM (inactive); GI50 (PC-3): > 100 µM (inactive); GI50 (RPMI-8226): > 100 µM (inactive); GI50 (RXF 393): > 100 µM (inactive); GI50 (SF-268): > 100 µM (inactive); GI50 (SF-295): > 100 µM (inactive); GI50 (SF-539): > 100 µM (inactive); GI50 (SK-MEL-28): > 100 µM (inactive); GI50 (SK-MEL-2): > 100 µM (inactive); GI50 (SK-MEL-5): > 100 µM (inactive); GI50 (SK-OV-3): > 100 µM (inactive); GI50 (SN12C): > 100 µM (inactive); GI50 (SNB-19): > 100 µM (inactive); GI50 (SNB-75): > 100 µM (inactive); GI50 (SR): > 100 µM (inactive); GI50 (SW-620): > 100 µM (inactive); GI50 (T47D): > 100 µM (inactive); GI50 (TK-10): > 100 µM (inactive); GI50 (U-251): > 100 µM (inactive); GI50 (UACC-257): > 100 µM (inactive); GI50 (UACC-62): > 100 µM (inactive); GI50 (UO-31): > 100 µM (inactive)
